Measured values taken from US20090054368A1, “Substituted gemini surfactant compounds” (University of Saskatchewan, priority 2007, published 2009).
Entries after “also recorded” stand apart in the source; their conditions may differ.

Experiments:
[1] = Small angle X-ray scattering (SAXS) of plasmid DNA-gemini surfactant-DOPE complexes; type: physicochemical; conditions: plasmid DNA-gemini surfactant-DOPE complexes
Method: SAXS measurements were carried out at beamline X21 at the National Synchrotron Light Source at Brookhaven National Laboratory. Beamline X21 is based on a wiggler source, with a helium gas-cooled Si(111) monochromator selecting the photon energy. The X-ray beam is focused by a toroidal mirror into the experimental station. Three pairs of precision slits, positioned at 4 m, 1 m, and 5 cm upstream of the sample, define the beam. The scattering pattern is recorded using a 13 cm Mar CCD detector (Mar USA, Evanston, Ill.) located 1.26 m (calibrated with the scattering pattern of silver behenate) downstream of the sample. The measurements were performed with 12 KeV x-rays and the data covered a q-range from 0.008 Å^−1 to 0.375 Å^−1. All beam paths are under vacuum, except at the sample position, where the sample is in air, and kapton windows terminate the vacuum beam paths. Samples were loaded into 1.5 mm capillaries (Charles Supper #15-BG, Natick Mass.) and data recorded at room temperature. All spectra were processed to remove background contributions by subtracting the scattering profile obtained for a water-filled capillary. Peak fitting was carried out using the open-sources software package “fityk” (available at http://www.unipress.waw.pl/fityk/; last accessed on Jul. 5, 2007) using multiple Gaussian functions.
Solutions for SAXS analysis were prepared by addition of appropriate amounts of stock surfactant, DNA, and DOPE solutions, followed by sonication (to ensure complete mixing) where appropriate. The pGTmCMV.IFN-GFP plasmid DNA was used in the SAXS studies. The final concentrations of DNA and DOPE were 0.075 mM (50 μg/mL) and 1.00 mM (0.75 mg/mL), respectively. The concentration of gemini surfactant was adjusted as needed to obtain the desired 1:10 DNA:surfactant charge ratio. Preliminary x-ray scattering studies indicated these concentrations to be too dilute to give good scattering signals; as a result, the samples were concentrated 5× by evaporation.

[2] = Size (hydrodynamic radius) and zeta potential as a function of pH; type: physicochemical; conditions: PGL complexes
Method: Determinations of size (hydrodynamic radius, RH) and zeta potential (ζ) as a function of pH were carried out using a Malvern Instruments (Worcestershire, UK) ZetaSizer NanoZs with MPT-2 auto-titrator attachment. 10 mL of the desired sample was placed in the titration cell of the auto-titrator and samples were titrated (in 0.2-0.5 pH unit increments) with 0.1 M NaOH and 0.1 M HCl over the desired pH range. Size and zeta potential measurement were made in triplicate at each pH point, and the reported values represent the average±standard error. pH titrations of aqueous gemini surfactant solutions were made at a surfactant concentration of 2.00 mM, above the critical micelle concentration in all cases.
(§1) Solutions for size, zeta potential, and circular dichrosicm (CD) measurements were prepared, in larger volumes, as described above for the transfection experiments using a pGTmCMV.IFN-GFP plasmid DNA, previously constructed in our lab. Solutions containing only surfactant and plasmid DNA were prepared by addition of an aliquot of stock plasmid DNA to the gemini surfactant solution to a charge ratio of 1:10 (DNA:surfactant).

[3] = from reference [24]; cited from earlier work
[4] = test system: COS-7 African Green monkey kidney fibroblast cells; assay: Transfection assay (luciferase production after transfection with plasmid DNA-gemini surfactant complexes); type: cell-based; conditions: PG complexes, complexed with DNA in the absence of helper lipid (DOPE)
cultured cells = assay: Viability of cells following transfection; type: cell-based; conditions: for cell viability / toxicity (in words): after transfection with plasmid DNA-gemini surfactant-DOPE
Method: Ideal transfection reagents are minimally toxic and/or disruptive to cells. Accordingly, the N-substituted surfactants were tested for toxicity in cultured cells. The viability of cells following transfection with either plasmid DNA-gemini surfactant-DOPE or Lipofectamine Plus are shown in FIG. 3. The aza-substituted surfactants 12-5N-12, 12-8N-12, and 12-7N-12 had similar toxicity compared to the Lipofectamine Plus reagent, with cell viability around 80% of the controls (i.e., no treatment or plasmid DNA alone; p>0.05).

[5] = Average membrane charge density calculation for plasmid DNA-gemini surfactant-DOPE nanoparticles; type: physicochemical; conditions: calculated from head group areas
plasmid DNA = assay: Circular dichroism of plasmid DNA-gemini surfactant complexes; type: physicochemical; conditions: with or without DOPE
Method: CD spectra were obtained by using an Applied Photo Physics π*180 instrument (Leatherhead, UK) with a 4 nm slit, at room temperature.
as §1

[6] = test system: COS-7 African Green monkey kidney fibroblast cells; assay: Transfection assay (luciferase production after transfection with plasmid DNA-gemini surfactant complexes); type: cell-based
Method: COS-7 African Green monkey kidney fibroblast cells (ATCC CRL1651) were prepared for transfection in antibiotic and 10% fetal bovine serum supplemented minimal Eagle's medium (MEM). The day before transfection, 5×10^4 cells/well were seeded in 24-well plates (Greiner Labortechnik GmbH, Germany). The supplemented MEM was changed to MEM one hour prior to transfection.
The pMASIA.Luc plasmid DNA was used at a concentration of 0.2 μg/well for transfection. The transfection mixtures were prepared as follows: 0.2 μg of plasmid DNA was mixed with aliquots of gemini surfactant solution to obtain a plasmid DNA:gemini surfactant charge ratio of 1:10 and incubated at room temperature for 15 minutes. To this mixture, 25 μL of DOPE liposomes were added. The transfection mixtures were incubated for 30 minutes at room temperature prior to transfection and added to the cells, dropwise. The plates were incubated for 5 hours at 37° C. in a CO2 incubator. Dc-Chol (30-[N—(N′,N′-Dimethylaminoethane)-carbamoyl]cholesterol) was used for comparison and, as a positive control, cells were also transfected with Lipofectamine Plus™ Reagent (Invitrogen Life Technologies, Carlsbad, Calif.), according to the manufacturer's protocol, with 0.2 μg of plasmid DNA per well.
Luciferase production was quantified using the Promega Steady-Glo™ luciferase assay system. Luminescence was monitored using a Turner Biosystems (Sunnyvale, Calif., USA) Reporter microplate luminometer. Statistical analysis was performed using ANOVA and Tukey's multiple comparison test. […] Equal variances were tested using Bartlett's test, and normality by the D'Agostino & Pearson omnibus normality test.

[7] = previous work [11]; cited from earlier work

| d-spacing of main scattering peak [1] [Å] | pH of transition in particle size and zeta potential [2] | membrane charge density σM [5] | DNA distortion from CD spectrum (in words) (plasmid DNA) | phase / morphology of lipid bilayers from scattering pattern (in words) [1] | SMILES | Head group area a0 [3] [nm^2/molecule] | transfection efficiency (in words) [4] | cell viability / toxicity (in words) (cultured cells) | cell viability (cultured cells; after transfection with plasmid DNA-gemini surfactant-DOPE or Lipofectamine Plus, relative to controls (no treatment or plasmid DNA alone)) | increase in transfection compared to the corresponding aza-substituted compound [6] [fold] | transfection efficiency (in words) ([6]; PGL complexes, with DOPE added) | transfection efficiency ([6]; PGL system (plasmid DNA-gemini surfactant-DOPE), charge ratio 1:10) | increase in transfection compared to an un-substituted gemini surfactant ([6]; p<0.01) [fold] | transfection efficiency within the 12-s-12 series, s=3-8 (in words) [7] |
| --- | --- | --- | --- | --- | --- | --- | --- | --- | --- | --- | --- | --- | --- | --- |
| 59.4 | 5.5 | 0.920 ×10^−2 e/Å^2 | greatest DNA distortion |  | CCCCCCCCCCCC[N+](C)(C)CCCNCCC[N+](C)(C)CCCCCCCCCCCC.[Br-].[Br-] [12-7NH-12, 1,9-bis(dodecyl)-1,1,9,9-tetramethyl-5-imino-1,9-nonanediammonium dibromide] | 1.56 ± 0.04 | significantly higher level of transfection efficiency | not statistically significantly different from that of the 12-5N-12 and 12-8N-12 | about 70% | 3 | enhanced transfection efficiency compared to the un-substituted surfactant, 12-3-12; also recorded: higher levels of transfection efficiency compared to the non-substituted gemini surfactant 12-3-12; also recorded: comparable to that of Lipofectamine Plus | 6.7±0.5 ng luciferase/2×10^4 cells | 9 |  |
|  |  |  |  | predominantly hexagonal morphology | CCCCCCCCCCCC[N+](C)(C)CCC[N+](C)(C)CCCCCCCCCCCC.[Br-].[Br-] [12-3-12, reference compound] |  | low transfection efficiency | not statistically different from the control |  |  |  |  |  | best transfection efficiency; also recorded: most efficient transfection agent |
